# Legend:
# Type in all cases: functional
# [1] = organism: Cavia porcellus; assay: Evaluated for the open epicutaneous test and no. of animals showing erythema covering part (0.5) by (-)4,5-Dimethyl-3-methylene-dihydro-furan-2-one sensitization in guinea pigs
# [2] = organism: Cavia porcellus; assay: Evaluated for the open epicutaneous test and no. of animals showing erythema and swelling(2) by (-)4,5-Dimethyl-3-methylene-dihydro-furan-2-one sensitization in guinea pigs
# [3] = organism: Cavia porcellus; assay: Evaluated for the open epicutaneous test and no. of animals showing no reaction (0) by (+)4,5-Dimethyl-3-methylene-dihydro-furan-2-one sensitization in guinea pigs
# [4] = organism: Cavia porcellus; assay: Evaluated for the open epicutaneous test and no. of animals showing erythema covering the whole (1) by (+)4,5-Dimethyl-3-methylene-dihydro-furan-2-one sensitization in guinea pigs
# [5] = organism: Cavia porcellus; assay: Evaluated for the open epicutaneous test and no. of animals showing erythema covering part (0.5) by (+)4,5-Dimethyl-3-methylene-dihydro-furan-2-one sensitization in guinea pigs
# [6] = organism: Cavia porcellus; assay: Mean reaction by (+)4,5-Dimethyl-3-methylene-dihydro-furan-2-one sensitization in guinea pigs was determined by open epicutaneous test fo the compound
# [7] = organism: Cavia porcellus; assay: Evaluated for the open epicutaneous test and no. of animals showing no reaction (0) by (-)4,5-Dimethyl-3-methylene-dihydro-furan-2-one sensitization in guinea pigs
# [8] = organism: Cavia porcellus; assay: Number of positive animals showing sensitization to (-)4,5-Dimethyl-3-methylene-dihydro-furan-2-one in 8 guinea pigs was determined by open epicutaneous test for the compound
# [9] = organism: Cavia porcellus; assay: Evaluated for the open epicutaneous test and no. of animals showing erythema and swelling(2) by (+)4,5-Dimethyl-3-methylene-dihydro-furan-2-one sensitization in guinea pigs
# [10] = organism: Cavia porcellus; assay: Number of positive animals showing sensitization to (+)4,5-Dimethyl-3-methylene-dihydro-furan-2-one in 8 guinea pigs was determined by open epicutaneous test for the compound
# [11] = organism: Cavia porcellus; assay: Mean reaction by (-)4,5-Dimethyl-3-methylene-dihydro-furan-2-one sensitization in guinea pigs was determined by open epicutaneous test fo the compound
# [12] = organism: Cavia porcellus; assay: Evaluated for the open epicutaneous test and no. of animals showing erythema covering the whole (1) by (-)4,5-Dimethyl-3-methylene-dihydro-furan-2-one sensitization in guinea pigs
# [13] = organism: Cavia porcellus; assay: Evaluated for the open epicutaneous test and no. of animals showing erythema covering the whole (1) by (+)4-Methyl-3-methylene-dihydro-furan-2-one sensitization in guinea pigs
# [14] = organism: Cavia porcellus; assay: Mean reaction by (-)4-Methyl-3-methylene-dihydro-furan-2-one sensitization in guinea pigs was determined by open epicutaneous test fo the compound
# [15] = organism: Cavia porcellus; assay: Evaluated for the open epicutaneous test and no. of animals showing erythema and swelling(2) by (-)4-Methyl-3-methylene-dihydro-furan-2-one sensitization in guinea pigs
# [16] = organism: Cavia porcellus; assay: Evaluated for the open epicutaneous test and no. of animals showing erythema covering part (0.5) by (+)4-Methyl-3-methylene-dihydro-furan-2-one sensitization in guinea pigs
# [17] = organism: Cavia porcellus; assay: Evaluated for the open epicutaneous test and no. of animals showing erythema covering part (0.5) by (-)4-Methyl-3-methylene-dihydro-furan-2-one sensitization in guinea pigs
# [18] = organism: Cavia porcellus; assay: Evaluated for the open epicutaneous test and no. of animals showing no reaction (0) by (+)4-Methyl-3-methylene-dihydro-furan-2-one sensitization in guinea pigs
# [19] = organism: Cavia porcellus; assay: Evaluated for the open epicutaneous test and no. of animals showing erythema and swelling(2) by (+)4-Methyl-3-methylene-dihydro-furan-2-one sensitization in guinea pigs
# [20] = organism: Cavia porcellus; assay: Evaluated for the open epicutaneous test and no. of animals showing erythema covering the whole (1) by (-)4-Methyl-3-methylene-dihydro-furan-2-one sensitization in guinea pigs
# [21] = organism: Cavia porcellus; assay: Number of positive animals showing sensitization to (-)4-Methyl-3-methylene-dihydro-furan-2-one in 6 guinea pigs was determined by open epicutaneous test for the compound
# [22] = organism: Cavia porcellus; assay: Number of positive animals showing sensitization to (+)4-Methyl-3-methylene-dihydro-furan-2-one in 6 guinea pigs was determined by open epicutaneous test for the compound
# [23] = organism: Cavia porcellus; assay: Evaluated for the open epicutaneous test and no. of animals showing no reaction (0) by (-)4-Methyl-3-methylene-dihydro-furan-2-one sensitization in guinea pigs
# [24] = organism: Cavia porcellus; assay: Number of positive animals showing sensitization to (+)4-Methyl-3-methylene-dihydro-furan-2-one in 3 guinea pigs was determined by open epicutaneous test for the compound
# [25] = organism: Cavia porcellus; assay: Mean reaction by (+)4-Methyl-3-methylene-dihydro-furan-2-one sensitization in guinea pigs was determined by open epicutaneous test fo the compound
# [26] = organism: Cavia porcellus; assay: Number of positive animals showing sensitization to (-)4-Methyl-3-methylene-dihydro-furan-2-one in 7 guinea pigs was determined by open epicutaneous test for the compound
smiles,measurement,setting,value
C=C1C(=O)O[C@H](C)[C@H]1C,No. of animals,[1],2
same,No. of animals,[2],0
same,No. of animals,[3],2
same,No. of animals,[4],1
same,No. of animals,[5],5
same,Mean reaction,[6],0.4
same,No. of animals,[7],3
same,No. of positive animals,[8],5
same,No. of animals,[9],0
same,No. of positive animals,[10],6
same,Mean reaction,[11],0.5
same,No. of animals,[12],3
C=C1C(=O)O[C@@H](C)[C@@H]1C,No. of animals,[1],3
same,No. of animals,[2],0
same,No. of animals,[3],8
same,No. of animals,[4],0
same,No. of animals,[5],0
same,Mean reaction,[6],0
same,No. of animals,[7],0
same,No. of positive animals,[8],8
same,No. of animals,[9],0
same,No. of positive animals,[10],0
same,Mean reaction,[11],0.8
same,No. of animals,[12],5
C=C1C(=O)OC[C@H]1C,No. of animals,[13],5
same,Mean reaction,[14],0
same,Mean reaction,[6],0.9
same,No. of animals,[7],6
same,No. of animals,[15],0
same,No. of animals,[16],1
same,No. of animals,[17],0
same,No. of animals,[18],0
same,No. of animals,[19],0
same,No. of animals,[20],0
same,No. of positive animals,[21],0
same,No. of positive animals,[22],6
C=C1C(=O)OC[C@@H]1C,No. of animals,[13],0
same,Mean reaction,[14],1.7
same,No. of animals,[23],0
same,No. of animals,[15],5
same,No. of positive animals,[24],3
same,No. of animals,[16],3
same,No. of animals,[17],0
same,No. of animals,[18],4
same,No. of animals,[19],0
same,No. of animals,[20],2
same,Mean reaction,[25],0.2
same,No. of positive animals,[26],7

# Reference: ChEMBL document CHEMBL1123630, “Stereospecificity in allergic contact dermatitis to simple substituted methylene lactone derivatives” (1987)
